Experimental findings from PubChem BioAssay (NCI) are described below.

Molecules are shown by their SMILES.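 Values below derive from 48-hour exposures of cells grown in 96-well plates, with endpoints linearly interpolated between the two concentrations bracketing the appropriate inhibition level. GI50 marks 50% less growth. TGI: concentration producing complete growth inhibition.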

Among the test systems are SK-MEL-28 melanoma; SNB-75 CNS; NCI-H23 lung; HOP-92 NSCLC; NCI-H460 lung; NCI-H226 lung; ACHN renal; SW-620 colon; HCT-15 colon; RXF 393 renal.
Common to all, as to experiment: NCI tumour cell line growth inhibition, 48 h

Turning to `NNC(=O)CC(=O)Nc1ccc(Cl)cc1`, the TGI in the assay with SK-MEL-28 melanoma, in the assay with SNB-75 CNS, with NCI-H23 lung, in the assay on HOP-92 NSCLC, in the assay with NCI-H460 lung and with NCI-H226 lung was above 100 µM in each case. The TGI with ACHN renal, with SW-620 colon, in the assay on HCT-15 colon and with RXF 393 renal was above 100 µM throughout.

As to `CCOC(=O)C1=CN=C2C(=O)N(c3ccccc3)N(C)C2(C)C1=N` (stereo not given), the TGI with SK-MEL-28 melanoma, in the assay on SNB-75 CNS, in the assay on NCI-H23 lung, with HOP-92 NSCLC, with NCI-H460 lung and in the assay with NCI-H226 lung was above 100 µM each time. Besides, the TGI in the assay with ACHN renal, with SW-620 colon, with HCT-15 colon and with RXF 393 renal was above 100 µM throughout.

Turning to `Cc1oc2nc1C(=O)NCc1nc(cs1)C(=O)N[C@H](C(C)C)c1nc(cs1)C(=O)N[C@H]2C`, the TGI with SK-MEL-28 melanoma, in the assay on SNB-75 CNS, in the assay with NCI-H23 lung, in the assay with HOP-92 NSCLC, in the assay on NCI-H460 lung and in the assay with NCI-H226 lung was above 100 µM in each case. Also, the TGI in the assay on ACHN renal, in the assay with SW-620 colon, in the assay with HCT-15 colon and in the assay with RXF 393 renal was above 100 µM in each case.

With `Oc1nc(N/N=C/c2c[nH]c3ccccc23)[nH]c1/C=C1\C=Nc2ccccc21`, the TGI is 54.1 µM with SK-MEL-28 melanoma; 78 µM in the assay with SNB-75 CNS; 38.5 µM in the assay with NCI-H23 lung; 36.9 µM in the assay with HOP-92 NSCLC; above 100 µM with NCI-H460 lung; 34.4 µM in the assay with NCI-H226 lung. Besides, the TGI in the assay on ACHN renal was 49.1 µM; in the assay on SW-620 colon it was 35.8 µM; in the assay with HCT-15 colon, 61 µM; in the assay on RXF 393 renal, above 100 µM.

Take `Cc1cc2c(cc1-c1cc3c(cc1C)C(C(C)C)=C(O)C(=O)/C3=C\Nc1nc(-c3ccccc3)cs1)/C(=C/Nc1nc(-c3ccccc3)cs1)C(=O)C(O)=C2C(C)C`: the TGI in the assay with SK-MEL-28 melanoma was 30.4 µM; in the assay on SNB-75 CNS, above 100 µM; with NCI-H23 lung, 28.8 µM; with HOP-92 NSCLC it was 55.7 µM; in the assay with NCI-H460 lung it was 46 µM; with NCI-H226 lung, 58.4 µM. For the same compound, the TGI with ACHN renal was 31.2 µM; in the assay on SW-620 colon, 29 µM; in the assay on HCT-15 colon it was 58.4 µM; in the assay with RXF 393 renal, 54.5 µM.

As to `CC(C)CC(=O)NC(Nc1ccc(S(=O)(=O)Nc2ncccn2)cc1)(C(F)(F)F)C(F)(F)F`, the TGI in the assay on SK-MEL-28 melanoma, with SNB-75 CNS, in the assay with NCI-H23 lung, with HOP-92 NSCLC, in the assay with NCI-H460 lung and in the assay with NCI-H226 lung was above 100 µM each time. The TGI in the assay with ACHN renal, with SW-620 colon, with HCT-15 colon and in the assay with RXF 393 renal was above 100 µM throughout.

`CCN1CCN(C(=O)[C@]23CC[C@@H](C)[C@H](C)[C@@H]2C2=CC[C@@H]4[C@@]5(C)C/C(=C/c6cccnc6)C(=O)C(C)(C)[C@@H]5CC[C@@]4(C)[C@]2(C)CC3)CC1`: the GI50 in the assay with SK-MEL-28 melanoma is 1.75 µM; in the assay with SNB-75 CNS it was 1.57 µM; with NCI-H23 lung it was 2.13 µM; with HOP-92 NSCLC it was 1.57 µM; with NCI-H460 lung it was 1.78 µM; in the assay on NCI-H226 lung, 1.89 µM. Besides, the GI50 in the assay with ACHN renal was 2.46 µM; in the assay with SW-620 colon it was 1.9 µM; with HCT-15 colon it was 1.66 µM; with RXF 393 renal, 1.45 µM. The TGI with SK-MEL-28 melanoma is 3.15 µM; with SNB-75 CNS, 8.91 µM; in the assay with NCI-H23 lung it was 5.91 µM; with HOP-92 NSCLC, 5.73 µM; in the assay on NCI-H460 lung, 3.45 µM; with NCI-H226 lung, 4.07 µM. The TGI in the assay on ACHN renal is 6.45 µM; in the assay with SW-620 colon it was 4.14 µM; in the assay with HCT-15 colon, 3.26 µM; in the assay on RXF 393 renal, 2.83 µM.

In the case of `CC1(C)CCC[C@]2(C)[C@@H]1CC[C@@]13O[C@@H]1C1=C(CO)C(=O)O[C@]14O[C@@H]4[C@@H]23`, the TGI with SK-MEL-28 melanoma was 31.4 µM; in the assay with SNB-75 CNS it was 30.6 µM; in the assay on NCI-H23 lung, 28.4 µM; with HOP-92 NSCLC, 29.3 µM; with NCI-H460 lung it was 41 µM; in the assay with NCI-H226 lung it was 42.1 µM. The TGI in the assay on ACHN renal stood at 30.2 µM; in the assay on SW-620 colon, 29.5 µM; with HCT-15 colon, 37.4 µM; in the assay with RXF 393 renal, 25.2 µM.

In the case of `COc1cc(/C=C2\C[C@H]3[C@@H]4CC=C5C[C@@H](N6CCCC6)CC[C@]5(C)[C@H]4CC[C@]3(C)[C@H]2O)cc(OC)c1OC`, the TGI turned out to be 35 µM in the assay with SK-MEL-28 melanoma; 25.8 µM with SNB-75 CNS; 29.9 µM in the assay with NCI-H23 lung; 25 µM with HOP-92 NSCLC; 13.6 µM with NCI-H460 lung; 39.7 µM in the assay on NCI-H226 lung. For the same compound, the TGI is 29.3 µM in the assay with ACHN renal, above 61.4 µM in the assay with SW-620 colon, 26.5 µM in the assay on HCT-15 colon and 20.2 µM with RXF 393 renal.

For `CCN(CC)CCCCCCCCNc1c2ccc(Cl)cc2nc2ccc(OC)cc12`, the GI50 is 1.95 µM in the assay on SK-MEL-28 melanoma; 1.49 µM with SNB-75 CNS; 2.28 µM in the assay with NCI-H23 lung; 1.39 µM with HOP-92 NSCLC; 0.883 µM with NCI-H460 lung; 1.74 µM with NCI-H226 lung. In addition, the GI50 in the assay with ACHN renal was 1.03 µM; with SW-620 colon, 1.02 µM; with HCT-15 colon it was 0.966 µM; in the assay with RXF 393 renal, 0.763 µM. The TGI came out at 3.63 µM in the assay with SK-MEL-28 melanoma; 3.15 µM in the assay with SNB-75 CNS; 7.25 µM with NCI-H23 lung; 3.31 µM in the assay on HOP-92 NSCLC; 2.56 µM in the assay on NCI-H460 lung; 3.74 µM in the assay with NCI-H226 lung. Also, the TGI in the assay on ACHN renal worked out at 2.5 µM; in the assay on SW-620 colon, 2.67 µM; in the assay with HCT-15 colon, 2.46 µM; in the assay with RXF 393 renal it was 2.09 µM.

Consider `CN(C)CCCn1c(Cc2ccccc2)nc2cc(C(F)(F)F)ccc21`, for which the TGI was 37.6 µM in the assay with SK-MEL-28 melanoma; above 100 µM with SNB-75 CNS; 83.2 µM in the assay on NCI-H23 lung; 92 µM in the assay with HOP-92 NSCLC; 43.2 µM in the assay with NCI-H460 lung; above 100 µM in the assay on NCI-H226 lung. Besides, the TGI with ACHN renal is above 100 µM; in the assay with SW-620 colon, 75.2 µM; with HCT-15 colon, 69.6 µM; in the assay on RXF 393 renal it was 67.8 µM.
